Consider 21 compounds from US20260325533A1, “CDK INHIBITOR COMPOUNDS” (ALEKSIA THERAPEUTICS, INC., priority 2023, published 2026).

Chain of CDK1/CCNB1 (P06493 whole entry): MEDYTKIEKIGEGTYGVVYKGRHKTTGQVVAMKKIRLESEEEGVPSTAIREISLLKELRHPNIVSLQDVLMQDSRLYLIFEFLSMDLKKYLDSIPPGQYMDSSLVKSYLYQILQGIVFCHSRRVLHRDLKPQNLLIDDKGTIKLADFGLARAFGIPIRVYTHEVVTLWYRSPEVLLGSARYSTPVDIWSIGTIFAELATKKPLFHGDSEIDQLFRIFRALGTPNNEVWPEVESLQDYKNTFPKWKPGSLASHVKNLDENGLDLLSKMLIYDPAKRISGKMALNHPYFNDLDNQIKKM
Chain of CDK1/CCNB1 (P14635 whole entry partner): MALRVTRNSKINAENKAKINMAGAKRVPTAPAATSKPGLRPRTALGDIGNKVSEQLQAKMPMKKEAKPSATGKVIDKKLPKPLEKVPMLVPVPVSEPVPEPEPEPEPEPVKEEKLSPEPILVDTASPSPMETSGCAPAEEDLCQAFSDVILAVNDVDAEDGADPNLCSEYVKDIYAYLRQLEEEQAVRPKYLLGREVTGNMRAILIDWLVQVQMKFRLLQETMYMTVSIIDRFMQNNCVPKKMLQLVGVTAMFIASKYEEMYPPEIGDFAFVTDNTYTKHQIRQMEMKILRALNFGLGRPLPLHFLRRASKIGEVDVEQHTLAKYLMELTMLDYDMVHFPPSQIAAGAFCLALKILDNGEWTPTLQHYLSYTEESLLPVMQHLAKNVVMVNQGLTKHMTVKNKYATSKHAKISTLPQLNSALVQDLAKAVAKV

The target of one assay is CDK2/CCNE1 (Homo sapiens, UniProt P24941). The assay is described as follows: CDK2 homogeneous time-resolved fluorescence (HTRF) kinase assay. As to conditions: <25 nM; CDK2/CCNE; read-out: CDK2/CCNE IC50, <25 nM. Format: biochemical. As for the experimental part: (§1) A CDK homogeneous time-resolved fluorescence (HTRF) assay was used to assess the potency of the compounds described herein.
(§2) To an untreated 384-well microtiter plate (ProxiPlate) was added 100 nL 100×test compound in DMSO and 5 μL 2×CDK enzyme in assay buffer (50 mM HEPES, 1 mM EGTA, 10 mM MgCl2, 0.01% Tween 20, 2 mM DTT). The plate was centrifuged at 800 RPM for 1 min then incubated for 20 min at 23 °C. 2.5 μL per well of 4×ATP and 2.5 μL 4×ULight™-eIF4E-binding protein 1 (Thr37/46) Peptide substrate were added to all wells. After addition, the plates were centrifuged at 800 RPM for 1 min. The plates were incubated at 23 °C for 60 min. 5 μL per well 4×EDTA solution were added to each well to stop the reaction. 5 μL 4×LANCE Ultra Europium-anti-phospho-eIF4E-binding protein 1 (Thr37/46) antibody were added to each well and the plate was centrifuged for 1 min at 800 RPM. The plate was incubated for 60 min at 23 °C. Fluorescence was read at 340 nm excitation and 665 nm emission on an En Vision 2105 fluorescence reader. The final concentrations of reagents in the activity assay were 3 nM CDK2/CCNE1, 1 mM ATP, 50 nM ULight™-eIF4E-binding protein 1 (Thr37/46) Peptide substrate, 1% DMSO, 10 mM EDTA, and 2 nM LANCE Ultra Europium-anti-phospho-eIF4E-binding protein 1 (Thr37/46).
(§3) Dose-response titrations were conducted by using an 11-point, half-logarithmic serial dilution scheme typically starting at 10 μM. Signals were reported as fluorescence units at 665 nm or the ratio of fluorescence units at 665 nm/fluorescence units at 615 nm. Signals are referred to below as “Lance signals”.
(§4) Using this assay, the IC50 values of example compounds were determined. Table 3 illustrates the IC50 for various Example compounds of Formula IA. Table 4 illustrates the IC50 for various other Example compounds of Formula I. ND=not determined.
On to `Cc1c(-c2nccc3cnc(Nc4ccc(S(=N)(=O)NC5CCC5)cc4)cc23)ccc2c1cnn2CC(O)(C(F)(F)F)C(F)(F)F` (single isomer, unassigned) [Ex 690, N-cyclobutyl-4-((5-(4-methyl-1-(3,3,3-trifluoro-2-hydroxy-2-(trifluoromethyl)propyl)-1H-indazol-5-yl)-2,6-naphthyridin-3-yl)amino)benzenesulfonimidamide], for which the IC50 was < 25 nM. Still for that read-out and setting: as for `Cc1c(-c2nccc3cnc(Nc4ccc(S(=N)(=O)Nc5ccccc5)cc4)cc23)ccc2c1cnn2CC(O)(C(F)(F)F)C(F)(F)F` (single isomer, unassigned) [Ex 693, 4-((5-(4-methyl-1-(3,3,3-trifluoro-2-hydroxy-2-(trifluoromethyl)propyl)-1H-indazol-5-yl)-2,6-naphthyridin-3-yl)amino)-N-phenylbenzenesulfonimidamide], the figure is < 25 nM.

Still in this assay, the particulars now being: >250 nM; CDK2/CCNE; read-out: CDK2/CCNE IC50, >250 nM.
On to `CS(=O)(=O)c1ccc(Nc2cc3c(C#Cc4cccnc4O)nccc3cn2)cc1` [Ex 902, 3-((7-((4-(methylsulfonyl)phenyl)amino)-2,6-naphthyridin-1-yl)ethynyl)pyridin-2-ol], for which the IC50 is > 250 nM.

Staying with this assay, now noted: CDK2/CCNE; 25-250 nM marked x; read-out: CDK2/CCNE IC50 25-250 nM.
Regarding `CNC(=O)C1CCCN(c2nccc3cnc(NC4CCN(S(C)(=O)=O)CC4)cc23)C1` (single isomer, unassigned) [Ex 31, N-methyl-1-(7-((1-(methylsulfonyl)piperidin-4-yl)amino)-2,6-naphthyridin-1-yl)piperidine-3-carboxamide], the IC50 was 25 to 250 nM. Same read-out and setting: as for `CCC1(CC)C(=O)Nc2cc(C#Cc3nccc4cnc(Nc5ccc(S(=N)(=O)C6CCC6)cc5OC)cc34)ccc21` (single isomer, unassigned) [Ex 272, 6-((7-((4-(cyclobutanesulfonimidoyl)-2-methoxyphenyl)amino)-2,6-naphthyridin-1-yl)ethynyl)-3,3-diethylindolin-2-one], the figure is 25 to 250 nM; as for `CCC1(CC)C(=O)Nc2cc(C#Cc3nccc4cnc(Nc5ccc(S(=N)(=O)C6CC(F)(F)C6)cc5F)cc34)ccc21` (single isomer, unassigned) [Ex 302, 6-((7-((4-(3,3-difluorocyclobutane-1-sulfonimidoyl)-2-fluorophenyl)amino)-2,6-naphthyridin-1-yl)ethynyl)-3,3-diethylindolin-2-one], 25 to 250 nM. Same read-out and setting: as for `CCC1(CC)C(=O)Nc2cc(C#Cc3nccc4cnc(Nc5ccc(S(=N)(=O)C(C)C)cc5OC)cc34)ccc21` (single isomer, unassigned) [Ex 341, 3,3-diethyl-6-((7-((2-methoxy-4-(propan-2-ylsulfonimidoyl)phenyl)amino)-2,6-naphthyridin-1-yl)ethynyl)indolin-2-one], the figure is 25 to 250 nM. On the same count and under the same terms, to `CS(=O)(=O)N1CCC(Nc2cc3c(N4CCOCC4)nccc3cn2)CC1` [Ex 30, N-(1-(methylsulfonyl)piperidin-4-yl)-5-morpholino-2,6-naphthyridin-3-amine] belongs 25 to 250 nM; to `CC(=O)N1CCN(c2nccc3cnc(NC4CCN(S(C)(=O)=O)CC4)cc23)CC1` [Ex 58, 1-(4-(7-((1-(methylsulfonyl)piperidin-4-yl)amino)-2,6-naphthyridin-1-yl)piperazin-1-yl)ethan-1-one], 25 to 250 nM. With `CS(=O)(=O)N1CCC(Nc2cc3c(-c4ccc(C#N)nc4)nccc3cn2)CC1` [Ex 79, 5-(7-((1-(methylsulfonyl)piperidin-4-yl)amino)-2,6-naphthyridin-1-yl)picolinonitrile], the IC50 lay within 25 to 250 nM.

Turning to `COC(=O)c1ccc(Nc2cc3c(C4=CCCCC4)nccc3cn2)cc1` [Ex 101, methyl 4-((5-(cyclohex-1-en-1-yl)-2,6-naphthyridin-3-yl)amino)benzoate], the IC50 lay in the range of 25 to 250 nM. Same read-out and setting: as for `O=C(Oc1ccc(F)cc1)c1ccc(Nc2cc3c(C4=CCCCC4)nccc3cn2)cc1` [Ex 254, 4-fluorophenyl 4-((5-(cyclohex-1-en-1-yl)-2,6-naphthyridin-3-yl)amino)benzoate], the figure is 25 to 250 nM.

Staying with this assay, now noted: CDK2/CCNE; <25 nM; read-out: CDK2/CCNE IC50 <25 nM.
As for `CCC1(CC)C(=O)Nc2cc(C#Cc3nccc4cnc(Nc5ccc(S(C)(=N)=O)cc5C(F)F)cc34)ccc21` (single isomer, unassigned) [Ex 295, 6-((7-((2-(difluoromethyl)-4-(S-methylsulfonimidoyl)phenyl)amino)-2,6-naphthyridin-1-yl)ethynyl)-3,3-diethylindolin-2-one], the IC50 was < 25 nM. As for `CCC1(CC)C(=O)Nc2cc(C#Cc3nccc4cnc(Nc5ccc(S(=N)(=O)C6CC6)cc5OC)cc34)ccc21` (single isomer, unassigned) [Ex 300, 6-((7-((4-(cyclopropanesulfonimidoyl)-2-methoxyphenyl)amino)-2,6-naphthyridin-1-yl)ethynyl)-3,3-diethylindolin-2-one], the IC50 was < 25 nM. On the same count and under the same terms, as for `CCC1(CC)C(=O)Nc2cc(C#Cc3nccc4cnc(Nc5ccc(S(=N)(=O)CC)cc5OC)cc34)ccc21` (single isomer, unassigned) [Ex 309, 3,3-diethyl-6-((7-((4-(ethylsulfonimidoyl)-2-methoxyphenyl)amino)-2,6-naphthyridin-1-yl)ethynyl)indolin-2-one], the figure is < 25 nM; as for `COc1cc(S(C)(=N)=O)ccc1Nc1cc2c(C#Cc3ccc4c(c3)NC(=O)C43CCC3)nccc2cn1` (single isomer, unassigned) [Ex 314, 6'-((7-((2-methoxy-4-(S-methylsulfonimidoyl)phenyl)amino)-2,6-naphthyridin-1-yl)ethynyl)spiro[cyclobutane-1,3'-indolin]-2'-one], < 25 nM; as for `CCC1(CC)C(=O)Nc2cc(C#Cc3nccc4cnc(Nc5ccc(S(=N)(=O)C6COC6)cc5OC)cc34)ccc21` (single isomer, unassigned) [Ex 318, 3,3-diethyl-6-((7-((2-methoxy-4-(oxetane-3-sulfonimidoyl)phenyl)amino)-2,6-naphthyridin-1-yl)ethynyl)indolin-2-one], < 25 nM. Regarding `CCC1(CC)C(=O)Nc2cc(C#Cc3nccc4cnc(Nc5ccc(S(C)(=N)=O)cc5OC)cc34)ccc21` (single isomer, unassigned) [Ex 320, 3,3-diethyl-6-((7-((2-methoxy-4-(S-methylsulfonimidoyl)phenyl)amino)-2,6-naphthyridin-1-yl)ethynyl)indolin-2-one], the IC50 was < 25 nM.

The same assay, now with this note: CDK2/CCNE; x = IC50 <25 nM; read-out: CDK2/CCNE IC50 (<25 nM).
As to `CCS(=N)(=O)c1ccc(Nc2cc3c(C#Cc4ccc5c(c4)NC(=O)C54CC4)nccc3cn2)cc1` (racemic) [Ex 377, 6'-((7-((4-(ethylsulfonimidoyl)phenyl)amino)-2,6-naphthyridin-1-yl)ethynyl)spiro[cyclopropane-1,3'-indolin]-2'-one], the IC50 is < 25 nM.

For the next assay, the target named is CDK1/CCNB1 (Homo sapiens, UniProt P06493). The assay is described as follows: CDK1 homogeneous time-resolved fluorescence (HTRF) kinase assay. The assay is classed as biochemical. Particulars: CDK1/CCNB; 25-250 nM marked x; read-out: CDK1/CCNB IC50 25-250 nM. As for the experimental part:
as §1
as §2, with “were 0.5” for “were 3”, “nM CDK1/CCNB1,” for “nM CDK2/CCNE1,”
as §3, §4
As to `N=S(=O)(c1ccc(Nc2cc3c(C#Cc4ccc5c(c4)NC(=O)C54CC4)nccc3cn2)c(F)c1)C1COC1` (single isomer, unassigned) [Ex 276, 6'-((7-((2-fluoro-4-(oxetane-3-sulfonimidoyl)phenyl)amino)-2,6-naphthyridin-1-yl)ethynyl)spiro[cyclopropane-1,3'-indolin]-2'-one], the IC50 lay in the range of 25 to 250 nM.

Staying with this assay, now noted: CDK1/CCNB; <25 nM; read-out: CDK1/CCNB IC50 <25 nM.
For the compound `N=S(=O)(c1ccc(Nc2cc3c(C#Cc4ccc5c(c4)NC(=O)C54CC4)nccc3cn2)cc1)C1CC1` (single isomer, unassigned) [Ex 307, 6'-((7-((4-(cyclopropanesulfonimidoyl)phenyl)amino)-2,6-naphthyridin-1-yl)ethynyl)spiro[cyclopropane-1,3'-indolin]-2'-one], the IC50 is < 25 nM.
